What all share (format): cell-based
Experiment [1] addresses T1, Saccharomyces cerevisiae ScGal2 (Gal2) transporter, SEQ ID NO:32 (Saccharomyces cerevisiae, UniProt P13181).
T1 construct: expressed in transfected cells; host or cells: S. cerevisiae SR8D8 (SR8 with HXT1-7 and GAL2 deleted), plasmid p42K-GPD1p-CYC1t
T1 sequence (P13181 1-574): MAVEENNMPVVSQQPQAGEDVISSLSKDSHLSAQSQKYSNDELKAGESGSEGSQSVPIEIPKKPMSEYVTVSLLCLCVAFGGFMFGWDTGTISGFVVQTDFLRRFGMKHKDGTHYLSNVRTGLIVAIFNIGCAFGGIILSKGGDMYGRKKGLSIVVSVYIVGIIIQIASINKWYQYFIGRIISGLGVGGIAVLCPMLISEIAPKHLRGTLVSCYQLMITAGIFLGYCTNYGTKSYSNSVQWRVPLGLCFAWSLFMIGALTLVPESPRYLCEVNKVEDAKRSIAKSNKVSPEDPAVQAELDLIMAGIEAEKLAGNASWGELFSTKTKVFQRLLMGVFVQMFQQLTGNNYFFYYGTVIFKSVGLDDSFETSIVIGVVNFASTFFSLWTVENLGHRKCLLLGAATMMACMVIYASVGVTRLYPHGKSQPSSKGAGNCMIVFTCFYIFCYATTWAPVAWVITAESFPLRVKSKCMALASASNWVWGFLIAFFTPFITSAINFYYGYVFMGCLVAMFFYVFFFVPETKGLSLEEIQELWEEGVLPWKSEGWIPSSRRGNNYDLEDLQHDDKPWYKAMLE
Nature of the experiment: C14 labeled sugar uptake assay (zero-trans influx), SR8D8 expressing ScGal2. As to conditions: initial xylose uptake (20 s), 30° C., pH 6.5; cell wet weight; ± SEM. The method, then:
(§1) FIG. 7A illustrates sugar uptake kinetics by SR8D8. FIG. 7B illustrates sugar uptake kinetics by SR8D8 expressing AtSWEET1. FIG. 7C illustrates sugar uptake kinetics by SR8D8 expressing ScGal2. FIG. 7D illustrates sugar uptake kinetics by SR8D8 expressing AtSWEET7. FIG. 7E illustrates sugar uptake kinetics by SR8D8 expressing LST1_205437. Initial xylose uptake (20 s) was measured at 30° C. over a concentration range of 1 to 500 mM xylose. FIG. 7F illustrates sugar uptake kinetics by SR8D8. FIG. 7G illustrates sugar uptake kinetics by SR8D8 expressing AtSWEET1. FIG. 7H illustrates sugar uptake kinetics by SR8D8 expressing ScGal2. FIG. 7I illustrates sugar uptake kinetics by SR8D8 expressing AtSWEET7. FIG. 7J illustrates sugar uptake kinetics by SR8D8 expressing LST1_205437. Initial glucose uptake (5 s) was measured at 30° C. over a concentration range of 0.2 to 100 mM glucose. Curve fitting for Michaelis-Menten kinetics was applied to data of three independent measurements at each concentration.
(§2) A xylose fermenting S. cerevisiae yeast (SR8) with HXT1-7Δ, GAL2Δ deletions was used for transporter screening and characterization (SR8D8). SR8D8 was grown in YPE medium/plate (10 g/L yeast extract, 20 g/L peptone, and 5 g/L ethanol). […] Biomass was calculated from the OD600 measured using a Biomate 5 UV-visible spectrophotometer (Fisher, NY, USA). All growth rates were measured using a Bioscreen C plate reader system (Growth Curves USA, Piscataway, NJ, USA). […]
(§3) SR8D8 containing the respective plasmid was grown on selective YPE medium to an OD600 of 1-1.5, harvested by centrifugation, and washed twice in ice-cold uptake buffer (100 mM potassium phosphate, pH 6.5). […] Radioactivity was analyzed in a Beckman-Coulter LS6500 multi-purpose liquid scintillation counter (Beckman-Coulter, CA, USA).
(§4) Uptake was measured at sugar concentrations 0.2, 1, 5, 25, and 100 mM for glucose and 1, 5, 25, 66, 100, 200, and 500 mM for xylose. Inhibition of xylose uptake by glucose was measured at 25, 66, and 100 mM xylose with additional 25 and 100 mM unlabeled glucose.

In experiment [2] the target is T2, Arabidopsis thaliana AtSWEET7 transporter, wild type (Table 2: SEQ ID NO: 3; FIG. 12: SEQ ID NO:2) (Arabidopsis thaliana, UniProt Q8LBF7).
T2 construct: expressed in transfected cells; host or cells: S. cerevisiae SR8D8 (SR8 with HXT1-7 and GAL2 deleted), plasmid p42K-GPD1p-CYC1t
T2 sequence (Q8LBF7 1-258): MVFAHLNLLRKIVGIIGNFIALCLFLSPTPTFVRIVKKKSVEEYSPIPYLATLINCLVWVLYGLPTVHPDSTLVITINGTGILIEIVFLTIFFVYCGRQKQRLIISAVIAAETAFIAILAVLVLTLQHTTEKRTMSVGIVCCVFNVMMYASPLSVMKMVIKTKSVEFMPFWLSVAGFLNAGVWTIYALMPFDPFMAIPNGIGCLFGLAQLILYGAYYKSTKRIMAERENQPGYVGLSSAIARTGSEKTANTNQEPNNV
Description: C14 labeled sugar uptake assay (zero-trans influx), SR8D8 expressing AtSWEET7. As to conditions: initial xylose uptake (20 s), 30° C., pH 6.5; cell wet weight; ± SEM. The method, then:
as §1, with “Curve fitting for Michaelis-Menten kinetics was applied to data of three independent measurements at each concentration.” left out
(§5) A xylose fermenting S. cerevisiae yeast (SR8) with HXT1-7Δ, GAL2Δ deletions was used for transporter screening and characterization (SR8D8). […] Biomass was calculated from the OD600 measured using a Biomate 5 UV-visible spectrophotometer (Fisher, NY, USA). All growth rates were measured using a Bioscreen C plate reader system (Growth Curves USA, Piscataway, NJ, USA). […]
(§6) Uptake was measured at sugar concentrations 0.2, 1, 5, 25, and 100 mM for glucose and 1, 5, 25, 66, 100, 200, and 500 mM for xylose. […]

For experiment [3], the target named is T3, Lipomyces starkeyi LST1_205437 transporter, wild type, SEQ ID NO: 4 (Lipomyces starkeyi, UniProt A0A1E3QE37).
T3 construct: whole-cell 14C sugar uptake
T3 sequence (A0A1E3QE37 1-603): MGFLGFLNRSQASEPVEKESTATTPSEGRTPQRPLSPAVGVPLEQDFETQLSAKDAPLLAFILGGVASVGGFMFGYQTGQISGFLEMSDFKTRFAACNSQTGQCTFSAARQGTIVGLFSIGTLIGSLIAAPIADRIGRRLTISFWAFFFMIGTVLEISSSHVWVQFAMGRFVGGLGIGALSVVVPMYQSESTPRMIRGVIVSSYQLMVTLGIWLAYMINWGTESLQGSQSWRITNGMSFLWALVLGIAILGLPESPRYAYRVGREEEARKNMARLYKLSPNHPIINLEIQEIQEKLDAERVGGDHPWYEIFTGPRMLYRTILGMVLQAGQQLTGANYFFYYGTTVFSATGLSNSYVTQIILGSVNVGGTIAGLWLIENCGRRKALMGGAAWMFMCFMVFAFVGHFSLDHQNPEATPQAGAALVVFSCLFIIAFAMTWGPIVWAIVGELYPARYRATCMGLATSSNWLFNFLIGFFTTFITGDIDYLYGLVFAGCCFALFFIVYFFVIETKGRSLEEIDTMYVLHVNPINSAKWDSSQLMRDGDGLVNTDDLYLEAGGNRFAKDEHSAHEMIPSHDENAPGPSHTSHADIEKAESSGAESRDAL
Description: C14 labeled sugar uptake assay (zero-trans influx), SR8D8 expressing LST1_205437. As to conditions: initial xylose uptake (20 s), 30° C., pH 6.5. The method, then: as §1, §2, §3, §4

Experiment [4] has as its target T4, Arabidopsis thaliana AtSWEET1 transporter, wild type, SEQ ID NO: 1 (Arabidopsis thaliana, UniProt Q8L9J7).
T4 construct: whole-cell 14C sugar uptake
T4 sequence (Q8L9J7 1-247): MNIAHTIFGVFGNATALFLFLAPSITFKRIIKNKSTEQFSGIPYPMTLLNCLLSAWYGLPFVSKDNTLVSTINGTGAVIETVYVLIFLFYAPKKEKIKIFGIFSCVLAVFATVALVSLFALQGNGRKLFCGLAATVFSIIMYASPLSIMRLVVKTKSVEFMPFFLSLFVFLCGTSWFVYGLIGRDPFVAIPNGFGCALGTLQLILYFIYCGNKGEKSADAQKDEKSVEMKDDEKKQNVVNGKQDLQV
Nature of the experiment: C14 labeled sugar uptake assay, SR8D8 expressing AtSWEET1. As to conditions: in words. The method, then: as §1, with “Curve fitting for Michaelis-Menten kinetics was applied to data of three independent measurements at each concentration.” left out
as §5, §6

Consider `OC1OC[C@@H](O)[C@H](O)[C@H]1O` (stereo partly drawn) [Xylose, D-xylose], for which the “Vmax (xylose)” value in experiment [1] stood at 88.7 ± 10.0 nmol/min/mg; in experiment [2], 100.9 ± 14.8 nmol/min/mg; in experiment [3], 76.8 nmol/min/mg; in experiment [3] (cell wet weight, ± SEM) it was 76.8 ± 9.0 nmol/min/mg. In addition, the xylose transport kinetics result in experiment [4] is given as “very poor xylose transport kinetics”.

(Values after patent US12686846B2, “Plant sweet and yeast MSF transporter capable of transporting different sugars simultaneously” (THE BOARD OF TRUSTEES OF THE UNIVERSITY OF ILLINOIS, priority 2020, dated 2026).)
